Values after ≈ are worked out from the molar mass of the structure shown.
Test: Toxicity in brine shrimp
Assay type: organism-based
Details: artemia, in vivo; read-out: LD50 (the source's name)

With `CCCCCC/C=C\CCC[C@@H](O)[C@H](N)CO` the LC50 was 9 µg/mL (≈ 37 µM).

Source: ChEMBL document CHEMBL1155554, “(2R,3R,7Z)-2-Aminotetradec-7-ene-1,3-diol, a new amino alcohol from the caribbean sponge Haliclona vansoesti” (J Nat Prod, 2000)
